Test results published in patent EP2987533B1, “7-substituted piperazin-1-yl fluoroquinolone compounds, their use in the treatment of cancer, pharmaceutical compositions and a method for preparation” (priority 2014, dated 2016).

How the values were obtained:
MDA-MB-435 = test: NCI one-dose SRB growth assay; format: cell-based; settings: Homo sapiens; MDA-MB-435 (Melanoma), 10^-5 M, 48 h; read-out: % Growth Inhibition (GI %)
Procedure: (§1) A primary anticancer assay was performed for an approximately 60 human tumor cell line panel derived from nine neoplastic diseases, in accordance with the protocol of the Drug Evaluation Branch, National Cancer Institute, Bethesda, MD (Monks A. et al., J. Natl. Cancer Inst 1991, 83, 757-766; Boyd M.R. and Paull K.D., Drug. Dev. Res. 1995, 34, 91-109; Shoemaker R.H., Nat. Rev. Cancer 2006, 6, 813-823). Briefly, tested compounds were added to the culture at a single concentration (10^-5M), and the cultures were incubated for 48 h. End point determinations were made with a protein binding dye, sulforhodamine B (SRB). The results for each tested compound were reported as the growth percentage of the treated cells when compared to that of the untreated control cells. The percentage growth was evaluated spectrophotometrically versus controls not treated with test agents.

SW-620 = test: NCI one-dose SRB growth assay; format: cell-based; settings: Homo sapiens; SW-620 (Colon Cancer), 10^-5 M, 48 h; read-out: % Growth Inhibition (GI %)
Procedure: as §1

IGROV1 = test: NCI one-dose SRB growth assay; format: cell-based; settings: Homo sapiens, IGROV-1; IGROV1 (Ovarian Cancer), 10^-5 M, 48 h; read-out: % Growth Inhibition (GI %)
Procedure: as §1

NCI/ADR-RES = test: NCI one-dose SRB growth assay; format: cell-based; settings: Homo sapiens; NCI/ADR-RES (Ovarian Cancer), 10^-5 M, 48 h; read-out: % Growth Inhibition (GI %)
Procedure: as §1

PC-3 = test: NCI one-dose SRB growth assay; format: cell-based; settings: Homo sapiens; PC-3 (Prostate Cancer), 10^-5 M, 48 h; read-out: % Growth Inhibition (GI %)
Procedure: as §1

BT-549 = test: NCI one-dose SRB growth assay; format: cell-based; settings: Homo sapiens; BT-549 (Breast Cancer), 10^-5 M, 48 h; read-out: % Growth Inhibition (GI %)
Procedure: as §1

MCF7 = test: NCI one-dose SRB growth assay; format: cell-based; settings: Homo sapiens; MCF7 (Breast Cancer), 10^-5 M, 48 h; read-out: % Growth Inhibition (GI %)
Procedure: as §1

SR = test: NCI one-dose SRB growth assay; format: cell-based; settings: Homo sapiens; SR (Leukemia), 10^-5 M, 48 h; read-out: % Growth Inhibition (GI %)
Procedure: as §1

SK-MEL-28 = test: NCI one-dose SRB growth assay; format: cell-based; settings: Homo sapiens; SK-MEL-28 (Melanoma), 10^-5 M, 48 h; read-out: % Growth Inhibition (GI %)
Procedure: as §1

MOLT-4 = test: NCI one-dose SRB growth assay; format: cell-based; settings: Homo sapiens; MOLT-4 (Leukemia), 10^-5 M, 48 h; read-out: % Growth Inhibition (GI %)
Procedure: as §1

A549/ATCC = test: NCI one-dose SRB growth assay; format: cell-based; settings: Homo sapiens; A549/ATCC (Non-Small Cell Lung Cancer), 10^-5 M, 48 h; read-out: % Growth Inhibition (GI %)
Procedure: as §1

U251 = test: NCI one-dose SRB growth assay; format: cell-based; settings: Homo sapiens, U-251; U251 (CNS Cancer), 10^-5 M, 48 h; read-out: % Growth Inhibition (GI %)
Procedure: as §1

SK-OV-3 = test: NCI one-dose SRB growth assay; format: cell-based; settings: Homo sapiens; SK-OV-3 (Ovarian Cancer), 10^-5 M, 48 h; read-out: % Growth Inhibition (GI %)
Procedure: as §1

KM12 = test: NCI one-dose SRB growth assay; format: cell-based; settings: Homo sapiens; KM12 (Colon Cancer), 10^-5 M, 48 h; read-out: % Growth Inhibition (GI %)
Procedure: as §1

T-47D = test: NCI one-dose SRB growth assay; format: cell-based; settings: Homo sapiens, T47D; T-47D (Breast Cancer), 10^-5 M, 48 h; read-out: % Growth Inhibition (GI %)
Procedure: as §1

LOX IMVI = test: NCI one-dose SRB growth assay; format: cell-based; settings: Homo sapiens; LOX IMVI (Melanoma), 10^-5 M, 48 h; read-out: % Growth Inhibition (GI %)
Procedure: as §1

SF-295 = test: NCI one-dose SRB growth assay; format: cell-based; settings: Homo sapiens; SF-295 (CNS Cancer), 10^-5 M, 48 h; read-out: % Growth Inhibition (GI %)
Procedure: as §1

NCI-H226 = test: NCI one-dose SRB growth assay; format: cell-based; settings: Homo sapiens; NCI-H226 (Non-Small Cell Lung Cancer), 10^-5 M, 48 h; read-out: % Growth Inhibition (GI %)
Procedure: as §1

COLO 205 = test: NCI one-dose SRB growth assay; format: cell-based; settings: Homo sapiens; COLO 205 (Colon Cancer), 10^-5 M, 48 h; read-out: % Growth Inhibition (GI %)
Procedure: as §1

HT29 = test: NCI one-dose SRB growth assay; format: cell-based; settings: Homo sapiens, HT-29; HT29 (Colon Cancer), 10^-5 M, 48 h; read-out: % Growth Inhibition (GI %)
Procedure: as §1

HOP-62 = test: NCI one-dose SRB growth assay; format: cell-based; settings: Homo sapiens; HOP-62 (Non-Small Cell Lung Cancer), 10^-5 M, 48 h; read-out: % Growth Inhibition (GI %)
Procedure: as §1

HCT-116 = test: NCI one-dose SRB growth assay; format: cell-based; settings: Homo sapiens; HCT-116 (Colon Cancer), 10^-5 M, 48 h; read-out: % Growth Inhibition (GI %)
Procedure: as §1

CNS cancer = test: NCI five-dose SRB assay, subpanel average; settings: 48 h
breast cancer = test: NCI five-dose SRB assay, subpanel average; settings: 48 h
leukemia = test: NCI five-dose SRB assay, subpanel average; settings: 48 h
prostate cancer = test: NCI five-dose SRB assay, subpanel average; settings: 48 h
[1] = Homo sapiens, read-out: GI50 (median growth inhibitory)
[2] = Homo sapiens, read-out: LC50 (median lethal)

`CCn1cc(C(=O)O)c(=O)c2cc(F)c(N3CCN(S(=O)(=O)c4c(C)cc(C)cc4C)CC3)cc21` [Compound 6a] was tested, and the inhibition at 10 µM (MDA-MB-435) was 10.9%, the inhibition at 10 µM (SW-620) was under 10% and the inhibition at 10 µM (IGROV1) was 20.6%. For the same compound, the inhibition at 10 µM (NCI/ADR-RES) was 15.2%, the inhibition at 10 µM (PC-3) was 38.9% and the inhibition at 10 µM (BT-549) was 26.3%. The inhibition at 10 µM (MCF7) was under 10%, the inhibition at 10 µM (SR) was 35.5% and the inhibition at 10 µM (SK-MEL-28) was under 10%. The inhibition at 10 µM (MOLT-4) was 24.1%, the inhibition at 10 µM (A549/ATCC) was 22% and the inhibition at 10 µM (U251) was 16.6%. It also gave an inhibition at 10 µM (SK-OV-3) of under 10%, an inhibition at 10 µM (KM12) of 12.8% and an inhibition at 10 µM (T-47D) of 25.9%. It also gave an inhibition at 10 µM (LOX IMVI) of 38.7%, an inhibition at 10 µM (SF-295) of 51.6% and an inhibition at 10 µM (NCI-H226) of 23.1%. It also gave an inhibition at 10 µM (COLO 205) of under 10%, an inhibition at 10 µM (HT29) of under 10% and an inhibition at 10 µM (HOP-62) of 28.5%. For the same compound, the inhibition at 10 µM (HCT-116) was 20.9%.
In the case of `O=c1[nH]cc(F)c(=O)[nH]1` [Compound 5-FU, 5-fluorouracil, reference compound], the GI50 (CNS cancer; [1]) is reported as 72.1 µM, the CC50 (CNS cancer; [2]) is reported as over 100 µM and the “TGI (total growth inhibitory)” value (CNS cancer; average over CNS cancer subpanel, five concentrations) is reported as “c (Compounds showed values > 100µM)”. The GI50 (breast cancer; [1]) was 76.4 µM, the CC50 (breast cancer; [2]) was over 100 µM and the “TGI (total growth inhibitory)” value (breast cancer; average over breast cancer subpanel, five concentrations) was “c (Compounds showed values > 100µM)”. The GI50 (leukemia; [1]) was 15.1 µM, the CC50 (leukemia; [2]) was over 100 µM and the “TGI (total growth inhibitory)” value (leukemia; average over leukemia subpanel, five concentrations) was “c (Compounds showed values > 100µM)”. It also gave an inhibition at 10 µM (MDA-MB-435) of 36.6%, an inhibition at 10 µM (SW-620) of 50.1% and an inhibition at 10 µM (IGROV1) of 51.2%. It also gave an inhibition at 10 µM (NCI/ADR-RES) of 47.6%, an inhibition at 10 µM (PC-3) of 58.2% and an inhibition at 10 µM (BT-549) of 37.8%. It also gave an inhibition at 10 µM (MCF7) of 11.5%, an inhibition at 10 µM (SR) of 24.8% and an inhibition at 10 µM (MOLT-4) of 43.1%. The inhibition at 10 µM (A549/ATCC) was 34.2%, the inhibition at 10 µM (U251) was 50.3% and the inhibition at 10 µM (SK-OV-3) was 77.5%. The inhibition at 10 µM (KM12) was 40.7%, the inhibition at 10 µM (T-47D) was 56.7% and the inhibition at 10 µM (LOX IMVI) was 30.4%. For the same compound, the inhibition at 10 µM (SF-295) was 69.1%, the inhibition at 10 µM (NCI-H226) was 69.5% and the inhibition at 10 µM (COLO 205) was 40.2%. For the same compound, the inhibition at 10 µM (HT29) was 27.1%, the inhibition at 10 µM (HOP-62) was 47.8% and the inhibition at 10 µM (HCT-116) was 17.8%. The GI50 (prostate cancer; [1]) was 22.7 µM, the CC50 (prostate cancer; [2]) was over 100 µM and the “TGI (total growth inhibitory)” value (prostate cancer; average over prostate cancer subpanel, five concentrations) was “c (Compounds showed values > 100µM)”.
